In ChEMBL document CHEMBL1201862, “PubChem BioAssay data set” (2004):
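A five-concentration, 48-hour dose response in 96-well plates underlies each endpoint, interpolated linearly between surrounding concentrations. At the GI50, growth is halved.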 Calls of active or inactive are those of the source. No stated cut-off is given here; in the data, active = GI50 up to about 1.1 µM and inactive = higher.

How the values were obtained:
Assay in all cases: NCI tumour cell line growth inhibition, 48 h
HOP-92 = system: HOP-92
SNB-75 = system: SNB-75
CAKI-1 = system: CAKI-1
NCI-H460 = system: NCI-H460
ACHN = system: ACHN
OVCAR-5 = system: OVCAR-5
SK-OV-3 = system: SK-OV-3
SK-MEL-5 = system: SK-MEL-5
SK-MEL-28 = system: SK-MEL-28
NCI-H23 = system: NCI-H23
EKVX = system: EKVX
HCC 2998 = system: HCC 2998
A549 = system: A549
SF-539 = system: SF-539
CCRF-CEM = system: CCRF-CEM
SR = system: SR
IGROV-1 = system: IGROV-1
K562 = system: K562
MCF7 = system: MCF7
MDA-MB-435 = system: MDA-MB-435

| Compound | GI50 (HOP-92) | GI50 (SNB-75) | GI50 (CAKI-1) | GI50 (NCI-H460) | GI50 (ACHN) | GI50 (OVCAR-5) | GI50 (SK-OV-3) | GI50 (SK-MEL-5) | GI50 (SK-MEL-28) | GI50 (NCI-H23) | GI50 (EKVX) | GI50 (HCC 2998) | GI50 (A549) | GI50 (SF-539) | GI50 (CCRF-CEM) | GI50 (SR) | GI50 (IGROV-1) | GI50 (K562) | GI50 (MCF7) | GI50 (MDA-MB-435) |
| --- | --- | --- | --- | --- | --- | --- | --- | --- | --- | --- | --- | --- | --- | --- | --- | --- | --- | --- | --- | --- |
| CC1=C(NC(=O)C(=O)NNC(=O)c2ccncc2)C(=O)c2ccccc2C1=O | 15.5 µM (inactive) | 17.4 µM (inactive) | 22.8 µM (inactive) | 4.44 µM (inactive) | 16.1 µM (inactive) | 17 µM (inactive) | 28.1 µM (inactive) | 1.98 µM (inactive) | 17.3 µM (inactive) | 6.32 µM (inactive) | 13.5 µM (inactive) | 16.9 µM (inactive) | 13.6 µM (inactive) | 17.2 µM (inactive) | 20 µM (inactive) | 9.12 µM (inactive) | 12.7 µM (inactive) | 24.1 µM (inactive) | – | – |
| O=C1C=C(c2ccccc2)NC1(c1ccccc1)c1cc(-c2ccccc2)[nH]c1-c1ccccc1 (centres undefined) | – | > 100 µM (inactive) | > 100 µM (inactive) | > 100 µM (inactive) | > 100 µM (inactive) | – | > 100 µM (inactive) | – | > 100 µM (inactive) | > 100 µM (inactive) | > 100 µM (inactive) | > 100 µM (inactive) | > 100 µM (inactive) | > 100 µM (inactive) | > 100 µM (inactive) | > 100 µM (inactive) | > 100 µM (inactive) | > 100 µM (inactive) | – | – |
| CCC(CCCCC1CC[C@H]2CC(=O)C[C@@H]12)OC (some centres undefined) | > 100 µM (inactive) | > 100 µM (inactive) | > 100 µM (inactive) | > 100 µM (inactive) | > 100 µM (inactive) | > 100 µM (inactive) | > 100 µM (inactive) | 79.8 µM (inactive) | > 100 µM (inactive) | > 100 µM (inactive) | – | > 100 µM (inactive) | > 100 µM (inactive) | > 100 µM (inactive) | 79.8 µM (inactive) | – | > 100 µM (inactive) | 26.5 µM (inactive) | > 100 µM (inactive) | – |
| Oc1cccc(C2SCc3nc4ccccc4n32)c1 (centres undefined) | 47.5 µM (inactive) | 4.17 µM (inactive) | 58.2 µM (inactive) | 60.7 µM (inactive) | 33.8 µM (inactive) | 26.2 µM (inactive) | > 100 µM (inactive) | 14.8 µM (inactive) | 59.4 µM (inactive) | 38.8 µM (inactive) | 43.5 µM (inactive) | > 100 µM (inactive) | 54.7 µM (inactive) | > 100 µM (inactive) | 48.2 µM (inactive) | 48.8 µM (inactive) | – | 16.9 µM (inactive) | – | – |
| Cc1c(C(=O)/C=C/c2ccc3c(c2)OCO3)[n+]([O-])c2ccccc2[n+]1[O-] | 21.1 µM (inactive) | 26.1 µM (inactive) | 25.9 µM (inactive) | 28.4 µM (inactive) | 35.6 µM (inactive) | 27.8 µM (inactive) | 21.3 µM (inactive) | – | 61 µM (inactive) | 19.5 µM (inactive) | 24.7 µM (inactive) | 23.1 µM (inactive) | 32.7 µM (inactive) | 22.5 µM (inactive) | 32.9 µM (inactive) | 30.3 µM (inactive) | 34.6 µM (inactive) | 33 µM (inactive) | – | – |
| OCC(O)C(OC1OC(CO)C(O)C(O)C1O)c1nn(-c2ccc(Cl)cc2)c2nc3cc(Cl)ccc3nc12 (centres undefined) | – | > 100 µM (inactive) | – | > 100 µM (inactive) | > 100 µM (inactive) | > 100 µM (inactive) | > 100 µM (inactive) | – | > 100 µM (inactive) | > 100 µM (inactive) | > 100 µM (inactive) | > 100 µM (inactive) | – | > 100 µM (inactive) | > 100 µM (inactive) | > 100 µM (inactive) | – | > 100 µM (inactive) | – | – |
| O=C(O)c1ccc(Nc2nc3nn(Cc4ccccc4)cc3c(=O)s2)cc1 | > 100 µM (inactive) | – | – | > 100 µM (inactive) | > 100 µM (inactive) | > 100 µM (inactive) | > 100 µM (inactive) | > 100 µM (inactive) | > 100 µM (inactive) | > 100 µM (inactive) | > 100 µM (inactive) | > 100 µM (inactive) | > 100 µM (inactive) | > 100 µM (inactive) | > 100 µM (inactive) | > 100 µM (inactive) | > 100 µM (inactive) | > 100 µM (inactive) | – | – |
| O=C(CCC(=O)Nc1cccc(Cl)c1)CC(=O)c1ccc(F)cc1 | > 100 µM (inactive) | > 100 µM (inactive) | > 100 µM (inactive) | > 100 µM (inactive) | > 100 µM (inactive) | > 100 µM (inactive) | > 100 µM (inactive) | – | > 100 µM (inactive) | > 100 µM (inactive) | – | > 100 µM (inactive) | > 100 µM (inactive) | > 100 µM (inactive) | – | > 100 µM (inactive) | – | > 100 µM (inactive) | – | – |
| CC1CC/C(=C\c2ccc(F)cc2)C2=C1C(c1ccc(F)cc1)NC(=S)N2 (centres undefined) | – | – | 57.8 µM (inactive) | 20.4 µM (inactive) | 54.3 µM (inactive) | – | > 100 µM (inactive) | 31 µM (inactive) | 88.3 µM (inactive) | 30.7 µM (inactive) | 12.9 µM (inactive) | – | – | > 100 µM (inactive) | 68.5 µM (inactive) | – | 43.5 µM (inactive) | 35.5 µM (inactive) | 53.3 µM (inactive) | 57.7 µM (inactive) |
| O=C(OCc1ccccc1)c1ccccc1-c1c2ccc(=O)cc-2oc2cc(OCc3ccccc3)ccc12 | 3.56 µM (inactive) | – | 5.22 µM (inactive) | 15.7 µM (inactive) | 6.93 µM (inactive) | 19.8 µM (inactive) | – | 5.86 µM (inactive) | 21.4 µM (inactive) | 10.4 µM (inactive) | 6.61 µM (inactive) | 19.6 µM (inactive) | 6.7 µM (inactive) | 13.6 µM (inactive) | 3.61 µM (inactive) | 4.49 µM (inactive) | 11 µM (inactive) | 3.18 µM (inactive) | – | – |
| CCCCOC(=O)/C(CC(=O)C=C(C)C)=N\NS(=O)(=O)c1ccc(C)cc1 | > 100 µM (inactive) | > 100 µM (inactive) | > 100 µM (inactive) | > 100 µM (inactive) | > 100 µM (inactive) | > 100 µM (inactive) | > 100 µM (inactive) | > 100 µM (inactive) | > 100 µM (inactive) | > 100 µM (inactive) | > 100 µM (inactive) | > 100 µM (inactive) | > 100 µM (inactive) | > 100 µM (inactive) | > 100 µM (inactive) | 27.7 µM (inactive) | > 100 µM (inactive) | > 100 µM (inactive) | – | – |
| O=C1C(Cl)=C(Cl)C(=O)N1c1cccc(C(F)(F)F)c1 | > 100 µM (inactive) | > 100 µM (inactive) | > 61.9 µM (inactive) | > 100 µM (inactive) | > 100 µM (inactive) | > 100 µM (inactive) | > 100 µM (inactive) | > 100 µM (inactive) | > 100 µM (inactive) | > 100 µM (inactive) | > 100 µM (inactive) | > 100 µM (inactive) | > 100 µM (inactive) | > 100 µM (inactive) | > 51.9 µM (inactive) | 35.9 µM (inactive) | > 100 µM (inactive) | > 54.5 µM (inactive) | – | – |
| Cc1ccc(C2OC(COCc3ccc(Cl)cc3)C(OCc3ccc(Cl)cc3)C2O)cc1 (centres undefined) | 3.18 µM (inactive) | 4.37 µM (inactive) | 11.4 µM (inactive) | 4.49 µM (inactive) | 15.1 µM (inactive) | > 100 µM (inactive) | 2.63 µM (inactive) | 12.1 µM (inactive) | 31.1 µM (inactive) | 6.44 µM (inactive) | 13 µM (inactive) | 19.3 µM (inactive) | 9.42 µM (inactive) | 16 µM (inactive) | – | 3.22 µM (inactive) | 8.89 µM (inactive) | 4.42 µM (inactive) | – | – |
| CC1(C)Cc2c(oc3ncnc(N)c23)CS1 | – | > 100 µM (inactive) | > 100 µM (inactive) | > 100 µM (inactive) | > 100 µM (inactive) | > 100 µM (inactive) | > 100 µM (inactive) | > 100 µM (inactive) | – | > 100 µM (inactive) | > 100 µM (inactive) | > 100 µM (inactive) | > 100 µM (inactive) | > 100 µM (inactive) | > 100 µM (inactive) | > 100 µM (inactive) | > 100 µM (inactive) | > 100 µM (inactive) | – | – |
| CC1=C2C(=CC(C)(CO)C2O)C(=O)C(C)(O)C12CC2 (centres undefined) | 0.00255 µM (active) | 0.00395 µM (active) | 0.00367 µM (active) | 0.000668 µM (active) | 0.00152 µM (active) | 0.00673 µM (active) | 0.005 µM (active) | 0.00108 µM (active) | 0.00425 µM (active) | 0.00203 µM (active) | 0.0103 µM (active) | 0.00213 µM (active) | 0.00254 µM (active) | 0.00569 µM (active) | 0.00201 µM (active) | 0.00347 µM (active) | 0.00721 µM (active) | 0.00279 µM (active) | – | – |
| [N-]=[N+]=C1C(=O)C2CC3CC(C2)CC1C3 | > 100 µM (inactive) | > 100 µM (inactive) | > 100 µM (inactive) | > 100 µM (inactive) | > 100 µM (inactive) | > 100 µM (inactive) | > 100 µM (inactive) | > 100 µM (inactive) | > 100 µM (inactive) | > 100 µM (inactive) | > 100 µM (inactive) | > 100 µM (inactive) | > 100 µM (inactive) | > 100 µM (inactive) | > 100 µM (inactive) | > 100 µM (inactive) | > 100 µM (inactive) | > 100 µM (inactive) | – | – |
| O=c1c(O)c(-c2ccc(O)c(O)c2)oc2cc(O)ccc12 [FISETIN] | 28.2 µM (inactive) | 5.27 µM (inactive) | – | 8.05 µM (inactive) | 18.7 µM (inactive) | 17.2 µM (inactive) | 9.66 µM (inactive) | 13.1 µM (inactive) | 21.7 µM (inactive) | 11.6 µM (inactive) | 25.4 µM (inactive) | 18.1 µM (inactive) | 30.3 µM (inactive) | 12 µM (inactive) | 8.99 µM (inactive) | 18 µM (inactive) | 18.6 µM (inactive) | 25 µM (inactive) | – | – |
